Test results from patent publication US20210023223A1, “HYDROCARBON / LIPID - CAROTENOID COMPLEXES” (IP SCIENCE LIMITED, priority 2018, published 2021).

Assays:
[1] = Size of beef fat globules, microscopy; assay type: physicochemical
From the text: For measurement of lipid droplets and fat globules and quantification of their size binocular microscope Olympus BX41 was used with Cell^B software for morphometric analysis. All parameters were collected from 10 randomly selected microscopic fields at ×1000). In case of beef fat, lycopene incorporation led to a smaller increase of its fat globules, only by 30%, FIG. 3.

[2] = Spreadability of oil drops on the surface of water; assay type: physicochemical
Description: (§1) 1. A petri dish of 13.5 cm diameter was filled to the brim with unheated water.
(§2) 2. 0.3 ml of Olive or Sunflower oil was dropped onto the surface from a standardised height (30 cm) using a 1 ml pipette.
(§3) 3. The resultant droplets were photographed and measured 30 sec after impact.
(§4) 4. For increased reliability, the procedure was repeated 5 times.
(§5) 5. Steps 1-4 were then repeated for Olive and Sunflower oils with or without carotenoids in different concentrations.

[3] = Spreadability of oil drops on the surface of water; assay type: physicochemical; remark: listed apart in the source
Description: as §1, §2, §3, §4, §5

Melting time at 37° C. = assay type: physicochemical
Description: Approximately 20 mg of butter, or pork fat, or beef fat, or cocoa butter, or chocolate, with or without certain concentrations of carotenoids, were placed on the surface of the laboratory slides and incubated at 37° C. in a laboratory incubator (TLK39).

[4] = Defrosting time of frozen oil; assay type: physicochemical
Description: To determined defrosting time, frozen oil aliquots of 200 μI were incubated at ambient temperature of 20±2 C° until they were completely melted. Period of time, which was required for the tested sample to be melted, was measured with a laboratory timer (QUANTUM).

[5] = Heating olive oil-in-water emulsions; assay type: physicochemical
[6] = tested on: B10.MLM cells (alveolar macrophages); experiment: Transmission electron microscopy of cells; assay type: cell-based; conditions: 48 hours
Description: B10.MLM cells were cultured with or without lycopene for 48 hours and then harvested from the plates with trypsin-versene solution. Cell pellets obtained by centrifugation for 10 min at 1500 r.p.m. (Rotanta 460R; Hettich) were fixed with Ito-Karnovsky fixative solution, followed by post-fixation with OsO4 and treatment with aqueous uranyl acetate to provide contrast. The specimens were subsequently dehydrated in an ascending series of alcohol concentrations (50, 70, 96 and 100% ethanol), infiltrated with a 1:1 (v/v) mixture of LR White resin and 100% ethanol for 1 h and in a pure resin for 12 h at 4° C. Resin polymerization was performed at 56° C. for 24 h. Ultrathin sections were prepared, treated with a lead solution to provide contrast (Reynolds, 1963) and analysed using a JEOL 100B transmission electron microscope with an accelerating voltage of 80 kV (Jeol, Japan).

[7] = tested on: middle-aged volunteers, facial skin; experiment: Lycopene trial, facial skin surface material; assay type: in vivo, human; conditions: 7 mg formulated lycopene daily, 4 weeks
Description: Group II—15 middle-aged (7 males and 8 females, 48-65 years old) for lycopene intervention and
Group II—participants received 7 mg formulated lycopene,
Daily dose of each carotenoid product was taken in one capsule with the main evening meal for 4 weeks (from day 1 to day 28 of the study).
For RSSC sample collection all participants of the study were requested to avoid facial hygienic manipulations for 24 hours before material collection, which was carried out in the morning. These samples were collected only before initiation of astaxanthin supplementation (day 0) and at the end of the study (day 29). RSSC sample collection and preparation was performed according to previously described procedures. Briefly, RSSC samples were collected using polyester swabs from the surface of the facial skin (the sides of the nose). During the procedure two samples were taken (one swab per side). Each collected sample was placed on the surface of a microscope slide. A second microscope slide was pressed against the surface of the first one. […] All slides with collected samples (i.e. four slides per study participant per time point) were coded to provide sample anonymity for blinded analysis. All collected samples were sent to the laboratory of Lycotec Ltd for further processing and eventual microscopic examination.
For morphological analysis of RSSC samples one slide of the first pair was stained with hematoxylin and eosin in order to identify any cells or cell remnants. The second slide was stained using Oil Red O (Lipid Stain, ab150678, Abcam, Cambridge, UK) for lipid visualization and lipid droplet size evaluation. One slide from the other pair was stained with crystal violet solution (Gram staining) to assess the level of microorganism presence. The remaining slides were kept unstained for possible future use.
The analysis of typical structural elements of the RSSC comprised lipid droplet measurements, counting characteristic lipid crystals and desquamated corneocytes, and evaluation of bacterial presence as previously described. The indicated micro objects/structures were quantified using Cell^B imaging software (Digital Imaging Solutions, Olympus, Japan). All microscopic samples were blinded before their examinations.
Smears collected from the surface of the facial skin were fixed with methanol. Permeabilised corneocytes and sebum present in the material were stained for direct immunofluorescence using fluorescein isothiocyanate-conjugated monoclonal antibody against lycopene recently generated by our group. Fluorescent staining was visualised using Nikon Eclipse 50i microscope with fluorescence attachment. The semi-quantitative analysis was based on visually assessing fluorescence levels in corneocytes and surrounding sebum in 20 random fields of view at ×200 magnification. Fluorescence intensity in the samples was classified using the following scoring system: 0—no fluorescence; 0.5—traces of fluorescence; 1—weak fluorescence; 2—moderate fluorescence; 3—strong fluorescence of some cells or areas of sebum background; 4—extremely strong fluorescence (confluent fluorescent elements within corneocytes). Fluorescence assessment in each sample was repeated blindly three times.

[8] = 1 molecule of lycopene within about 120,000 molecules of oil lipids

- Increase of beef fat globules [1]: 30%
- Diameter of spread lipid drops relative to intact oil [2, 8]: 6-8 fold
- Increase of spreadability on the surface of the water ([2]; olive oil): 11 fold
- Diameter of spread lipid drops relative to intact oil [3, 8]: 6-8 fold
- Increase of spreadability on the surface of the water ([3]; sunflower oil): 23 fold
- Reduction of melting time of cocoa butter (Melting time at 37° C.; 0.3 mg per 1 g): more than 8 fold
- Reduction of melting time of white chocolate (Melting time at 37° C.; 0.3 mg per 1 g of the chocolate): under 3 fold
- Melting time of white chocolate (Melting time at 37° C.; 0.3 mg per 1 g of the chocolate, control 11 minutes): 4 min
- Melting time of cocoa butter (Melting time at 37° C.; 0.3 mg per 1 g, control 16.5 minutes): 2 min
- Reduction of thawing time of Canola/Rapeseed oil ([4]; 0.3 mg per 1 ml of the oil): over 2 fold
- Reduction of thawing time of Olive oil ([4]; 0.3 mg per 1 ml of the oil): 10 fold
- Thawing time of Canola/Rapeseed oil ([4]; 0.3 mg per 1 ml of the oil, control 85 seconds): 40 s
- Thawing time of Cod Liver oil ([4]; 0.3 mg per 1 ml of the oil, control 120): 55 s
- Thawing time of frozen Olive oil ([4]; 0.3 mg per 1 ml of the oil, controls 60 (lycopene) and 48 seconds (astaxanthin)): 6 s
- Reduction of thawing time of Sunflower oil ([4]; 0.3 mg per 1 ml the oil): 17 fold
- Rate of heating of olive oil emulsion in water in the first 3 minutes ([5]; 50%:50%, 1 molecule lycopene to 67,000 or astaxanthin to 71,000 fatty acids, control 10° C.): 18 °C
- Maximum temperature the emulsion could reach ([5]; water to olive oil 75%:25%, control 62° C.): 100 °C
Compound: CC(C)=CCC/C(C)=C/C=C/C(C)=C/C=C/C(C)=C/C=C/C=C(C)/C=C/C=C(C)/C=C/C=C(\C)CCC=C(C)C [Lycopene]
- Mitochondrial structures [6]: significantly increased both in size and their numbers
- Bacterial load on the surface of the skin [7]: significant reduction of the bacterial load
- Lycopene presence in desquamated corneocytes [7]: significantly increased for the whole period of supplementation
- Lycopene presence in sebum [7]: lycopene amount growth only during the first two weeks of supplementation
- Rate of desquamation of corneocytes [7]: noticeably lower
- Sebum production [7]: significant increase of the sebum production
